This passage reports EC50 and IC50 results from patent US11091428B2 (HAPLOGEN GMBH, priority 2016, dated 2021).

Assay [1] relates to picornaviruses (CVB1, HRV-A2, HRV-A23, EV-68). As to the kind of experiment: Anti-picornavirus cytopathic effect (CPE) reduction assay on HeLa H1 cells. The assay is classed as cell-based. Particulars: Enterovirus B, HeLa H1 cells, 48 h, category from averaging the EC50 values from four picornaviruses (CVB1, HRV-A2, HRV-A23, EV68), read-out: EC50 values of the compounds determined in the anti-picornavirus assay. A digest of the protocol:
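HeLa H1 cells pre-treated 2 h with serially diluted compound in DMEM/2% FBS, then infected at an MOI giving full CPE in 2 days. After 48 h at 37° C, viability read by CellTiterBlue fluorescence (ex 560/em 590 nm), normalised to infected and uninfected vehicle controls; EC50 by non-linear regression, category from mean of four viruses.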

The target of assay [2] is T1, PLA2G16 (Homo sapiens, UniProt P53816).
T1 construct: Hexa-His (N); made in house; host or cells: E. coli BL21(DE3)
T1 sequence (P53816 1-162): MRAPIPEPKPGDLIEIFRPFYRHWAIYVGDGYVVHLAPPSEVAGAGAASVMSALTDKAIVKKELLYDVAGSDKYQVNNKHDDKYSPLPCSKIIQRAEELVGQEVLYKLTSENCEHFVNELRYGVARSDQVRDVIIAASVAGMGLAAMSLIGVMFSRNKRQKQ
As to the kind of experiment: Enzyme activity assay for PLA2G16 (Red/Green BODIPY PC-A2 fluorescence). The assay is classed as biochemical. Particulars: His-tagged PLA2G16, 4 min pre-incubation, 2 nM to 50 μM; read-out: IC50 values of the compounds determined in the enzyme activity assay for PLA2G16. A digest of the protocol:
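N-His-tagged human PLA2G16 from E. coli, Ni-NTA purified. Pre-incubated 4 min with compound (2 nM–50 μM final) in pH 8.5 Tris/NaCl buffer with 5 mM glutathione, then BODIPY PC-A2 in DOPC/DOPG/cholesterol vesicles added. Fluorescence (ex 480/em 530 nm) increase over 10 min taken as activity; IC50 by non-linear regression.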

Read-outs that look alike come from different tables or passages of the source.

In the case of `CC(OCC1CC1)C(=O)C(=O)NCC1CC1` (centres unmarked) [FP 134, 3-(Cyclopropylmethoxy)-N-(cyclopropylmethyl)-2-oxobutanamide], in assay [1] (HeLa H1, 48 h), the EC50 lay in the range of 1000 to 10000 nM. Further, in assay [2], the IC50 was under 1000 nM.
The like results for `COc1ccccc1N(C=O)C(C)C(=O)C(=O)NCC(C)C` (centres unmarked) [FP 100, 3-[N-(2-Methoxyphenyl)formamido]-N-(2-methylpropyl)-2-oxobutanamide] were, in that order, 1000 to 10000 nM and under 1000 nM.
In the same order, the values of `CC(C(=O)C(=O)NC(C)(C)c1cccc(Cl)c1)N(C=O)C1CCCCC1` (centres unmarked) [FP 27, N[2-(3-Chlorophenyl)propan-2-yl]-3-(N-cyclohexylformamido)-2-oxobutanamide] are under 1000 nM and under 1000 nM.
The like results for `CC(C)(C#N)CNC(=O)C(=O)[C@H]1CCC(=O)N1Cc1ccccc1` [FP 263, 2-[(2R)-1-Benzyl-5-oxopyrrolidin-2-yl]-N-(2-cyano-2,2-dimethylethyl)-2-oxoacetamide] were, in that order, 1000 to 10000 nM and under 1000 nM.
For the compound `CCNC(=O)C(=O)[C@H]1CCC(=O)N1Cc1ccccc1` [FP 265, 2-[(2R)-1-Benzyl-5-oxopyrrolidin-2-yl]-N-ethyl-2-oxoacetamide], in assay [1] (HeLa H1, 48 h), the EC50 was under 1000 nM. The IC50 in assay [2] was under 1000 nM.
Regarding `CC(C)NC(=O)C(=O)C1CCC(=O)N1Cc1ccccc1` (centres unmarked) [FP 308, 2-(1-Benzyl-5-oxopyrrolidin-2-yl)-2-oxo-N-(propan-2-yl)acetamide], the EC50 in assay [1] (HeLa H1, 48 h) is under 1000 nM. Besides, the IC50 in assay [2] was under 1000 nM.
`CC(OC1CCCCC1)C(=O)C(=O)NCC1CC1` (centres unmarked) [FP 120, 3-(Cyclohexyloxy)-N-(cyclopropylmethyl)-2-oxobutanamide]: the EC50 in assay [1] (HeLa H1, 48 h) is under 1000 nM. In assay [2], the IC50 is under 1000 nM.
`CC(C)C(=O)N1CC(NC(=O)C(=O)[C@H]2CCC(=O)N2Cc2ccccc2)C1` [FP 316, 2-[(2R)-1-Benzyl-5-oxopyrrolidin-2-yl]-N-[1-(2-methylpropanoyl)azetidin-3-yl]-2-oxoacetamide]: in assay [1] (HeLa H1, 48 h), the EC50 is 1000 to 10000 nM. The IC50 in assay [2] is under 1000 nM.
The like results for `CC(NS(=O)(=O)c1ccc(Cl)cc1)C(=O)C(=O)NCC1CC1` (centres unmarked) [FP 215, 3-(4-Chlorobenzenesulfonamido)-N-(cyclopropylmethyl)-2-oxobutanamide] were, in that order, 1000 to 10000 nM and under 1000 nM.
The like results for `CC(C(=O)C(=O)NCC1CC1)N(C)C(=O)C1CCCCC1` (centres unmarked) [FP 150, 3-(1-Cyclohexyl-N-methylformamido)-N-(cyclopropylmethyl)-2-oxobutanamide] were, in that order, 1000 to 10000 nM and under 1000 nM.
The like results for `CC(C)CNC(=O)C(=O)C(C)N(C=O)CC1CC1` (centres unmarked) [FP 16, 3-[N-(cyclopropylmethyl)formamido]-N-(2-methylpropyl)-2-oxobutanamide] were, in that order, 1000 to 10000 nM and under 1000 nM.
On to `CC(C)NC(=O)[C@H]1C[C@@H](NC(=O)C(=O)[C@H]2CCC(=O)N2Cc2ccccc2)C1` [FP 305, (1 s,3s)-3-{2-[(2R)-1-Benzyl-5-oxopyrrolidin-2-yl]-2-oxoacetamido}-N-(propan-2-yl)cyclobutane-1-carboxamide], for which, in assay [1] (HeLa H1, 48 h), the EC50 is 1000 to 10000 nM. Moreover, the IC50 in assay [2] is under 1000 nM.
The like results for `O=C(COCC1CCCCC1)C(=O)NCC1CC1` [FP 129, 3-(Cyclohexylmethoxy)-N-(cyclopropylmethyl)-2-oxopropanamide] were, in that order, over 10000 nM and under 1000 nM.
On to `COc1ccccc1N(C=O)C(C)C(=O)C(=O)NCc1cc(F)cc(Cl)c1` (centres unmarked) [FP 94, N-[(3-Chloro-5-fluorophenyl)methyl]-3-[N-(2-methoxyphenyl)formamido]-2-oxobutanamide], for which, in assay [1] (HeLa H1, 48 h), the EC50 was under 1000 nM. In addition, the IC50 in assay [2] was under 1000 nM.
As to `CC(NC(=O)c1ccccc1)C(=O)C(=O)NCC1CCCCC1` (centres unmarked) [FP 179, N-(Cyclohexylmethyl)-2-oxo-3-(phenylformamido)butanamide], the EC50 in assay [1] (HeLa H1, 48 h) was under 1000 nM. The IC50 in assay [2] is under 1000 nM.
With `Cc1ccccc1C(=O)N[C@H](C)C(=O)C(=O)NCC1CC1` (single isomer, unassigned) [FP 158], the EC50 in assay [1] (HeLa H1, 48 h) was in the range of 1000 to 10000 nM. The IC50 in assay [2] is under 1000 nM.
In the same order, the values of `CCC(NC(=O)c1cccnc1)C(=O)C(=O)NCC1CCCCC1` (centres unmarked) [FP 210, N-(Cyclohexylmethyl)-2-oxo-3-[(pyridin-3-yl)formamido]pentanamide] are 1000 to 10000 nM and under 1000 nM.
As to `COc1ccccc1N(C=O)C(C)C(=O)C(=O)NCCc1cccc(Cl)c1` (centres unmarked) [FP 97, N-[2-(3-Chlorophenyl)ethyl]-3-[N-(2-methoxyphenyl)formamido]-2-oxobutanamide], the EC50 in assay [1] (HeLa H1, 48 h) was under 1000 nM. For the same compound, in assay [2], the IC50 is under 1000 nM.
As to `CCCC(NC(=O)CN(C)C)C(=O)C(=O)NCC1CCCCC1` (centres unmarked) [FP 207, N-(Cyclohexylmethyl)-3-[2-(dimethylamino)acetamido]-2-oxohexanamide], in assay [1] (HeLa H1, 48 h), the 50% effective concentration (EC50) was 1000 to 10000 nM. For the same compound, in assay [2], the IC50 is under 1000 nM.
On to `Cc1csc(CN2C(=O)CCC2C(=O)C(=O)NCC2CCCC2)n1` (centres unmarked), for which, in assay [1] (CVB1|EV68|HRVA2|HRVA23, HeLa H1, 48 h), the EC50 is under 1000 nM. The IC50 in assay [2] is under 1000 nM.
As for `O=C(NC1CC2(COC2)C1)C(=O)[C@H]1CCC(=O)N1Cc1ccccc1` [FP 297, 2-[(2R)-1-Benzyl-5-oxopyrrolidin-2-yl]-N-{2-oxaspiro[3.3]heptan-6-yl}-2-oxoacetamide], the EC50 in assay [1] (HeLa H1, 48 h) lay in the range of 1000 to 10000 nM. In addition, the half-maximal inhibitory concentration (IC50) in assay [2] was under 1000 nM.
For `O=C(NCc1ccccn1)C(=O)C1CCC(=O)N1Cc1ccccc1` (centres unmarked) [FP 230, 2-(1-Benzyl-5-oxopyrrolidin-2-yl)-2-oxo-N-[(pyridin-2-yl)methyl]acetamide], in assay [1] (HeLa H1, 48 h), the EC50 is over 10000 nM. In assay [2], the IC50 was under 1000 nM.
In the same order, the values of `CC(C)CC(=O)N1CC(NC(=O)C(=O)[C@H]2CCC(=O)N2Cc2ccccc2)C1` [FP 317, 2-[(2R)-1-Benzyl-5-oxopyrrolidin-2-yl]-N-[1-(3-methylbutanoyl)azetidin-3-yl]-2-oxoacetamide] are 1000 to 10000 nM and under 1000 nM.
Consider `NC(=O)c1ccc(CN2C(=O)CCC2C(=O)C(=O)NCC2CCCCC2)cc1` (centres unmarked) [FP 252, 4-[(2-{[(Cyclohexylmethyl)carbamoyl]carbonyl}-5-oxopyrrolidin-1-yl)methyl]benzamide], for which the EC50 in assay [1] (HeLa H1, 48 h) lay in the range of 1000 to 10000 nM. The IC50 in assay [2] is under 1000 nM.
In the same order, the values of `CC(C)[C@H]1CC(=O)N(Cc2ccccc2)[C@@H]1C(=O)C(=O)NC1CC1` (racemic) [FP 342, 2-[(2S,3R)-1-Benzyl-5-oxo-3-(propan-2-yl)pyrrolidin-2-yl]-N-cyclopropyl-2-oxoacetamide and 2-[(2R,3S)-1-benzyl-5-oxo-3-(propan-2-yl)pyrrolidin-2-yl]-N-cyclopropyl-2-oxoacetamide] are under 1000 nM and under 1000 nM.
The like results for `O=C(NC1CC1)C(=O)C1CCC(=O)N1Cc1ccc(Cl)cc1F` (centres unmarked) [FP 234, 2-{1-[(4-Chloro-2-fluorophenyl)methyl]-5-oxopyrrolidin-2-yl}-N-cyclopropyl-2-oxoacetamide] were, in that order, 1000 to 10000 nM and under 1000 nM.
The like results for `O=C(NC1CCCC1)C(=O)C1CCC(=O)N1CC1CC1` (centres unmarked) [FP 254, N-Cyclopentyl-2-[1-(cyclopropylmethyl)-5-oxopyrrolidin-2-yl]-2-oxoacetamide] were, in that order, 1000 to 10000 nM and under 1000 nM.
As to `COc1ccccc1CNC(=O)C(=O)C(C)N(C=O)c1ccccc1OC` (centres unmarked) [FP 95, 3-[N-(2-Methoxyphenyl)formamido]-N-[(2-methoxyphenyl)methyl]-2-oxobutanamide], in assay [1] (HeLa H1, 48 h), the EC50 was in the range of 1000 to 10000 nM. In assay [2], the IC50 is under 1000 nM.
